Each block holds one molecule with its values, some of them ahead of it.
Columns and labels:
[1] = target: T1, Angiotensin-converting enzyme (Oryctolagus cuniculus) (UniProt P12822); assay: In vivo inhibition of Angiotensin I converting enzyme in rabbit lung after (iv) administration of a dose of 1.0(mg/kg); format: organism-based
T1 sequence (whole entry): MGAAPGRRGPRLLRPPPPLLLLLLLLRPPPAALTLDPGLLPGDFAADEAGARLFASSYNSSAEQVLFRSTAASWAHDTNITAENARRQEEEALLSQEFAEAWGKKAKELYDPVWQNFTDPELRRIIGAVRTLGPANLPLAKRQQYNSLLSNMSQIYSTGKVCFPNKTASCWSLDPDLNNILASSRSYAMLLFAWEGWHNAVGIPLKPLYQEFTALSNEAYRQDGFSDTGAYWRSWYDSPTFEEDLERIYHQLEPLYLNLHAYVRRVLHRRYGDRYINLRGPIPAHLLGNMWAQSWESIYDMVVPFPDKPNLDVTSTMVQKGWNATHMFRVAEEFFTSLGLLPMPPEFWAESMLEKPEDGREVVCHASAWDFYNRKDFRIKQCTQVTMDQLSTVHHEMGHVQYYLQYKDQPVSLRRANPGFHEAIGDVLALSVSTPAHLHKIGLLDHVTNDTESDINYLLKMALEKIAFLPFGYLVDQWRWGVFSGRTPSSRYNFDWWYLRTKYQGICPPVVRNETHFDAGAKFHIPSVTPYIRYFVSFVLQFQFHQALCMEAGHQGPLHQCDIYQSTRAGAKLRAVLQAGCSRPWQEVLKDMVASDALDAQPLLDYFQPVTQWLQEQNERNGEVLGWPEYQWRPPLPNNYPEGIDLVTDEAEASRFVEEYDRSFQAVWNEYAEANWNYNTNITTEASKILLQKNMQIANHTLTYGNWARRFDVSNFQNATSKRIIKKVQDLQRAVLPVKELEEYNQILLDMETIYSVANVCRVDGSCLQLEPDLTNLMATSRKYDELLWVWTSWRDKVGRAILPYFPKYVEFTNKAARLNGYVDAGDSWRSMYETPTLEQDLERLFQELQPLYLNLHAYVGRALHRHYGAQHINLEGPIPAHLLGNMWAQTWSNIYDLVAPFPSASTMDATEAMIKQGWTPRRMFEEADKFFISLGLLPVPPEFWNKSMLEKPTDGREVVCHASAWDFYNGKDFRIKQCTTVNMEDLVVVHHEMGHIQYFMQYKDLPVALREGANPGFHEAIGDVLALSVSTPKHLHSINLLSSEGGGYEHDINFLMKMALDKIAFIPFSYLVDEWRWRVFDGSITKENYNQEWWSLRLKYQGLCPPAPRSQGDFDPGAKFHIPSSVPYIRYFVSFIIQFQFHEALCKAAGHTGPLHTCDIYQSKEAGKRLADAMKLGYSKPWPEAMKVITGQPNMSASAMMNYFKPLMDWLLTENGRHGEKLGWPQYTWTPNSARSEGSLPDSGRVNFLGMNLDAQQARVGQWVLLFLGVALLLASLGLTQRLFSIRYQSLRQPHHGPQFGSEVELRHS

[2] = target: T1, Angiotensin-converting enzyme (Oryctolagus cuniculus); assay: Time to inhibit maximum Angiotensin I converting enzyme in rabbit lung; format: functional, tissue-based
[3] = system: Angiotensin-converting enzyme (Sus scrofa); assay: Time during which ACE inhibition is greater than or equal to 30% in Hog plasma
[4] = system: Angiotensin-converting enzyme (Sus scrofa); assay: Time to inhibit maximum Angiotensin I converting enzyme in Hog plasma
[5] = target: T2, Angiotensin-converting enzyme (Oryctolagus cuniculus, UniProt P12822); assay: In vitro inhibition of Angiotensin I converting enzyme in rabbit lung; format: tissue-based
T2 sequence (P12822 whole entry): T1 sequence (whole entry)

[6] = target: T1, Angiotensin-converting enzyme (Oryctolagus cuniculus); assay: In vivo inhibition of Angiotensin I converting enzyme in rabbit lung at the dose of 10(mg/kg), po; format: organism-based
[7] = target: T1, Angiotensin-converting enzyme (Oryctolagus cuniculus); assay: Time during which Angiotensin I converting enzyme inhibition is greater than or equa to 30% in rabbit lung
[8] = target: T2, Angiotensin-converting enzyme; assay: In vitro inhibition of angiotensin I converting enzyme (ACE) in rabbit lung; format: tissue-based
Rattus norvegicus [9] = assay: Percent change in Na+in fasted rats at the dose of 30 mg/kg (po), 0-5 h; format: functional
Rattus norvegicus [10] = assay: Percent change in urinary volume in fasted rats at the dose of 30 mg/kg (po), 0-5 h; format: functional, Urine
Rattus norvegicus [11] = assay: Percent change in Na+ in fasted rats at the dose of 10 mg/kg (iv), 0-5 h; format: functional
Rattus norvegicus [12] = assay: Percent change in K+ in fasted rats at the dose of 10 mg/kg (iv), 0-5 h; format: functional
Rattus norvegicus [13] = assay: Percent change in K+ in fasted rats at the dose of 30 mg/kg (po), 0-5 h; format: functional
Rattus norvegicus [14] = assay: Percent change in urinary volume in fasted rats at the dose of 10 mg/kg (iv), 0-5 h; format: functional, Urine
[15] = target: T1, Angiotensin-converting enzyme (Oryctolagus cuniculus); assay: In vivo inhibition of Angiotensin I converting enzyme in rabbit lung after (po) administration of a dose of 10(mg/kg); format: organism-based
Rattus norvegicus [16] = assay: Percent change in K+ in fasted rats at the dose of 25 mg/kg (iv), 5-24 h; format: functional
Rattus norvegicus [17] = species on record: Rattus norvegicus; assay: The onset hour was determined in rat; format: functional
Rattus norvegicus [18] = assay: Percent change in urinary volume in fasted rats at the dose of 25 mg/kg (iv), 5-24 h; format: functional, Urine
Rattus norvegicus [19] = assay: Percent change in Na+ in fasted rats at the dose of 25 mg/kg (iv), 0-5 h; format: functional
[20] = target: T1, Angiotensin-converting enzyme (Oryctolagus cuniculus); assay: Time during which angiotensin I converting enzyme inhibition is greater than or equa to 30% in rabbit lung; format: functional, tissue-based
Rattus norvegicus [21] = assay: Percent change in K+ in fasted rats at the dose of 25 mg/kg (iv), 0-5 h; format: functional
[22] = target: T1, Angiotensin-converting enzyme (Oryctolagus cuniculus); assay: Time to inhibit maximum angiotensin I converting enzyme in rabbit lung; format: functional, tissue-based
Rattus norvegicus [23] = assay: Percent change in Na+in fasted rats at the dose of 25 mg/kg (iv), 5-24 h; format: functional
Rattus norvegicus [24] = assay: Antihypertensive activity was determined in spontaneously hypertensive rat at a dose of 100 mg/kg(ip) administration; format: functional
[25] = target: T1, Angiotensin-converting enzyme (Oryctolagus cuniculus); assay: In vivo inhibition of angiotensin I converting enzyme (ACE) in rabbit lung after (iv) administration of a dose of 10(mg/kg); format: organism-based
Rattus norvegicus [26] = assay: Time duration was determined for the actioni (determination of MAP in ip administration) in rat; format: functional
Rattus norvegicus [27] = assay: Percent change in urinary volume in fasted rats at the dose of 25 mg/kg (iv), 0-5 h; format: functional, Urine

SMILES: C[C@H](N[C@@H](CCc1ccccc1)C(=O)O)C(=O)N1C[C@@H](NS(=O)(=O)c2cc3c(cc2Cl)N=CNS3(=O)=O)C[C@H]1C(=O)O
IC50 [8]: 23 nM

SMILES: NS(=O)(=O)c1cc2c(cc1Cl)N=CNS2(=O)=O [CHLOROTHIAZIDE]
Change (Rattus norvegicus [9]): 0% | Change (Rattus norvegicus [10]): 94% | Change (Rattus norvegicus [11]): 60% | Change (Rattus norvegicus [12]): 100% | Change (Rattus norvegicus [13]): 71% | Change (Rattus norvegicus [14]): 83%

The next lines start with results.

inhibition [1]: 85% | Time to max. inhibition [2]: 0.3 h | Duration [3]: 0 h | Time to max. inhibition [4]: 0.3 h | IC50 [5]: 26 nM | inhibition [6]: 52% | Duration [7]: 3 h
SMILES: C[C@H](N[C@@H](CCc1ccccc1)C(=O)O)C(=O)N1CC(NNC(=O)c2ccc(Cl)c(S(N)(=O)=O)c2)C[C@H]1C(=O)O (some centres not stated)

inhibition [15]: 74%
SMILES: C[C@H](N[C@@H](CCc1ccccc1)C(=O)O)C(=O)N1CCC[C@H]1C(=O)O

Duration [20]: 1.25 h | Time to max. inhibition [22]: 0.3 h | inhibition [25]: 78%
SMILES: C[C@H](N[C@@H](CCc1ccccc1)C(=O)O)C(=O)N1C[C@@H](NS(=O)(=O)c2cc3c(cc2Cl)NC=NS3(=O)=O)C[C@H]1C(=O)O
Change (Rattus norvegicus [16]): 67% | Onset (Rattus norvegicus [17]): <0.25 h | Change (Rattus norvegicus [18]): 61% | Change (Rattus norvegicus [19]): 0% | Change (Rattus norvegicus [21]): 40% | Change (Rattus norvegicus [23]): 0% | Change in MAP (Rattus norvegicus [24]): -11% | Duration (Rattus norvegicus [26]): 3 h | Change (Rattus norvegicus [27]): 0%
